Data: ChEMBL document CHEMBL3885881, “DrugMatrix”

Species on record: Rattus norvegicus
Assay: DrugMatrix - Regimen: Daily Repeat
Assay type: toxicity, organism-based, Sprague-Dawley
Parameters: regimen Daily Repeat, gender Male, age 6-8 weeks
Conditions: in vivo, sc, route subcutaneous, […]; for ABSOLUTE BASOPHIL / ABSOLUTE EOSINOPHIL / ABSOLUTE LYMPHOCYTE / ABSOLUTE MONOCYTE / ABSOLUTE SEGMENTED NEUTROPHIL / BASOPHIL / EOSINOPHIL / ERYTHROCYTE COUNT / HEMATOCRIT / HEMOGLOBIN / LEUKOCYTE COUNT / LYMPHOCYTE / MEAN CORPUSCULAR HEMOGLOBIN / MEAN CORPUSCULAR HEMOGLOBIN CONCENTRATION / MONOCYTE / NUCLEATED RED BLOOD CELLS / PLATELET COUNT: tissue Blood; for ALANINE AMINOTRANSFERASE / ALBUMIN / ALKALINE PHOSPHATASE / ASPARTATE AMINOTRANSFERASE / BLOOD UREA NITROGEN / CARBON DIOXIDE / CHLORIDE / CHOLESTEROL / CREATINE PHOSPHOKINASE / CREATININE / GLUCOSE / LACTATE DEHYDROGENASE / PHOSPHORUS / POTASSIUM / SODIUM / TOTAL BILIRUBIN / TOTAL PROTEIN / URIC ACID: tissue Plasma
[1] = 130 mg/kg, 72 h, dose level High, time 3 day
[2] = 130 mg/kg, 120 h, dose level High, time 5 day
[3] = 72 h, dose 2.4 mg/Kg, dose level Low, time 3 day
[4] = 120 h, dose 2.4 mg/Kg, dose level Low, time 5 day

CC(C)(C)NCC(O)c1cc(O)cc(O)c1 (stereo not given) [TERBUTALINE]
ABSOLUTE BASOPHIL [1]: 0 CELLS/uL | ABSOLUTE EOSINOPHIL [1]: 167.67 CELLS/uL | ABSOLUTE LYMPHOCYTE [1]: 11900.33 CELLS/uL | ABSOLUTE MONOCYTE [1]: 398.67 CELLS/uL | ABSOLUTE SEGMENTED NEUTROPHIL [1]: 1166.67 CELLS/uL | BASOPHIL [1]: 0% | EOSINOPHIL [1]: 1.33% | ERYTHROCYTE COUNT [1]: 5.52 x10E6/uL | HEMATOCRIT [1]: 35.5% | HEMOGLOBIN [1]: 13.33 G/DL | LEUKOCYTE COUNT [1]: 13.63 x10E3/uL | LYMPHOCYTE [1]: 87% | MEAN CORPUSCULAR HEMOGLOBIN [1]: 24.2 pg | MEAN CORPUSCULAR HEMOGLOBIN CONCENTRATION [1]: 37.57 G/DL | MONOCYTE [1]: 3% | NUCLEATED RED BLOOD CELLS [1]: 0 /100WBC | PLATELET COUNT [1]: 1383.67 x10E3/uL | ALANINE AMINOTRANSFERASE [1]: 49 u/L | ALBUMIN [1]: 4.03 G/DL | ALKALINE PHOSPHATASE [1]: 361 u/L | ASPARTATE AMINOTRANSFERASE [1]: 73.33 u/L | BLOOD UREA NITROGEN [1]: 18.33 mg/dL | CARBON DIOXIDE [1]: 25.67 mmol/L | CHLORIDE [1]: 104 MEQ/L | CHOLESTEROL [1]: 72.33 mg/dL | CREATINE PHOSPHOKINASE [1]: 253.67 u/L | CREATININE [1]: 0.23 mg/dL | GLUCOSE [1]: 146 mg/dL | LACTATE DEHYDROGENASE [1]: 407 u/L | PHOSPHORUS [1]: 12.8 mg/dL | POTASSIUM [1]: 6.42 MEQ/L | SODIUM [1]: 145.5 MEQ/L | TOTAL BILIRUBIN [1]: 0.2 mg/dL | TOTAL PROTEIN [1]: 5.97 G/DL | URIC ACID [1]: 1.3 mg/dL | ABSOLUTE BASOPHIL [2]: 0 CELLS/uL | ABSOLUTE EOSINOPHIL [2]: 53.33 CELLS/uL | ABSOLUTE LYMPHOCYTE [2]: 12240 CELLS/uL | ABSOLUTE MONOCYTE [2]: 406 CELLS/uL | ABSOLUTE SEGMENTED NEUTROPHIL [2]: 2467.33 CELLS/uL | BASOPHIL [2]: 0% | EOSINOPHIL [2]: 0.33% | ERYTHROCYTE COUNT [2]: 6.08 x10E6/uL | HEMATOCRIT [2]: 37.43% | HEMOGLOBIN [2]: 14.03 G/DL | LEUKOCYTE COUNT [2]: 15.17 x10E3/uL | LYMPHOCYTE [2]: 80.67% | MEAN CORPUSCULAR HEMOGLOBIN [2]: 23.13 pg | MEAN CORPUSCULAR HEMOGLOBIN CONCENTRATION [2]: 37.47 G/DL | MONOCYTE [2]: 2.67% | NUCLEATED RED BLOOD CELLS [2]: 0.33 /100WBC | PLATELET COUNT [2]: 1346 x10E3/uL | ALANINE AMINOTRANSFERASE [2]: 52.67 u/L | ALBUMIN [2]: 4.13 G/DL | ALKALINE PHOSPHATASE [2]: 293.33 u/L | ASPARTATE AMINOTRANSFERASE [2]: 84.67 u/L | BLOOD UREA NITROGEN [2]: 17.33 mg/dL | CARBON DIOXIDE [2]: 28.33 mmol/L | CHLORIDE [2]: 101.33 MEQ/L | CHOLESTEROL [2]: 69 mg/dL | CREATINE PHOSPHOKINASE [2]: 289.33 u/L | CREATININE [2]: 0.22 mg/dL | GLUCOSE [2]: 150.67 mg/dL | LACTATE DEHYDROGENASE [2]: 492.33 u/L | PHOSPHORUS [2]: 14.6 mg/dL | POTASSIUM [2]: 6.32 MEQ/L | SODIUM [2]: 146.93 MEQ/L | TOTAL BILIRUBIN [2]: 0.2 mg/dL | TOTAL PROTEIN [2]: 6.13 G/DL | URIC ACID [2]: 1.93 mg/dL | ABSOLUTE BASOPHIL [3]: 0 CELLS/uL | ABSOLUTE EOSINOPHIL [3]: 181 CELLS/uL | ABSOLUTE LYMPHOCYTE [3]: 16357.33 CELLS/uL | ABSOLUTE MONOCYTE [3]: 366 CELLS/uL | ABSOLUTE SEGMENTED NEUTROPHIL [3]: 1395.67 CELLS/uL | BASOPHIL [3]: 0% | EOSINOPHIL [3]: 1% | ERYTHROCYTE COUNT [3]: 5.97 x10E6/uL | HEMATOCRIT [3]: 37.73% | HEMOGLOBIN [3]: 13.8 G/DL | LEUKOCYTE COUNT [3]: 18.3 x10E3/uL | LYMPHOCYTE [3]: 89.33% | MEAN CORPUSCULAR HEMOGLOBIN [3]: 23.13 pg | MEAN CORPUSCULAR HEMOGLOBIN CONCENTRATION [3]: 36.6 G/DL | MONOCYTE [3]: 2% | NUCLEATED RED BLOOD CELLS [3]: 0 /100WBC | PLATELET COUNT [3]: 1334.67 x10E3/uL | ALANINE AMINOTRANSFERASE [3]: 41.67 u/L | ALBUMIN [3]: 4.2 G/DL | ALKALINE PHOSPHATASE [3]: 286.67 u/L | ASPARTATE AMINOTRANSFERASE [3]: 75 u/L | BLOOD UREA NITROGEN [3]: 17 mg/dL | CARBON DIOXIDE [3]: 24.33 mmol/L | CHLORIDE [3]: 105.67 MEQ/L | CHOLESTEROL [3]: 72.67 mg/dL | CREATINE PHOSPHOKINASE [3]: 235.33 u/L | CREATININE [3]: 0.23 mg/dL | GLUCOSE [3]: 155.67 mg/dL | LACTATE DEHYDROGENASE [3]: 382 u/L | PHOSPHORUS [3]: 13.4 mg/dL | POTASSIUM [3]: 6.76 MEQ/L | SODIUM [3]: 149.43 MEQ/L | TOTAL BILIRUBIN [3]: 0.2 mg/dL | TOTAL PROTEIN [3]: 6.23 G/DL | URIC ACID [3]: 1.77 mg/dL | ABSOLUTE BASOPHIL [4]: 0 CELLS/uL | ABSOLUTE EOSINOPHIL [4]: 0 CELLS/uL | ABSOLUTE LYMPHOCYTE [4]: 13803 CELLS/uL | ABSOLUTE MONOCYTE [4]: 207 CELLS/uL | ABSOLUTE SEGMENTED NEUTROPHIL [4]: 2023.33 CELLS/uL | BASOPHIL [4]: 0% | EOSINOPHIL [4]: 0% | ERYTHROCYTE COUNT [4]: 5.8 x10E6/uL | HEMATOCRIT [4]: 36.37% | HEMOGLOBIN [4]: 13.53 G/DL | LEUKOCYTE COUNT [4]: 16.03 x10E3/uL | LYMPHOCYTE [4]: 86% | MEAN CORPUSCULAR HEMOGLOBIN [4]: 23.33 pg | MEAN CORPUSCULAR HEMOGLOBIN CONCENTRATION [4]: 37.23 G/DL | MONOCYTE [4]: 1.33% | NUCLEATED RED BLOOD CELLS [4]: 0 /100WBC | PLATELET COUNT [4]: 1437.33 x10E3/uL | ALANINE AMINOTRANSFERASE [4]: 49.33 u/L | ALBUMIN [4]: 4.13 G/DL | ALKALINE PHOSPHATASE [4]: 415 u/L | ASPARTATE AMINOTRANSFERASE [4]: 76 u/L | BLOOD UREA NITROGEN [4]: 20.33 mg/dL | CARBON DIOXIDE [4]: 27.67 mmol/L | CHLORIDE [4]: 105 MEQ/L | CHOLESTEROL [4]: 63 mg/dL | CREATINE PHOSPHOKINASE [4]: 180 u/L | CREATININE [4]: 0.22 mg/dL | GLUCOSE [4]: 154 mg/dL | LACTATE DEHYDROGENASE [4]: 224.33 u/L | PHOSPHORUS [4]: 13.03 mg/dL | POTASSIUM [4]: 6.39 MEQ/L | SODIUM [4]: 146.27 MEQ/L | TOTAL BILIRUBIN [4]: 0.17 mg/dL | TOTAL PROTEIN [4]: 5.87 G/DL | URIC ACID [4]: 1.57 mg/dL
